Measured values taken from ChEMBL document CHEMBL1782011, “Facile synthesis, vasorelaxant properties and molecular modeling studies of 2-amino-8a-methoxy-4H-pyrano[3,2-c]pyridine-3-carbonitriles” (Eur J Med Chem, 2011).
Counter-ions that a name gives are not always drawn.

Organism: Rattus norvegicus
Experiment: Vasodilatory activity in Wistar rat thoracic aorta rings assessed as inhibition of norepinephrine hydrochloride-induced contraction
Type: functional
CO[C@@]12CCN(C)C[C@H]1[C@H](c1ccc(F)cc1)C(C#N)=C(N)O2 was tested, and the IC50 was 520 µM.
COc1ccc([C@@H]2C(C#N)=C(N)O[C@]3(OC)CCN(C)C[C@@H]23)cc1 gave an IC50 of 300 µM.
CO[C@@]12CCN(C)C[C@H]1[C@H](c1ccc(N3CCCCC3)cc1)C(C#N)=C(N)O2 gave an IC50 of 450 µM.
CCN1CC[C@@]2(OC)OC(N)=C(C#N)[C@@H](c3ccccc3)[C@@H]2C1 gave an IC50 of 680 µM.
CCN1CC[C@@]2(OC)OC(N)=C(C#N)[C@@H](c3ccc(Cl)cc3)[C@@H]2C1 gave an IC50 of 400 µM.
CO[C@@]12CCN(C)C[C@H]1[C@H](c1cccs1)C(C#N)=C(N)O2 showed an IC50 of 680 µM.
CCN1CC[C@@]2(OC)OC(N)=C(C#N)[C@@H](c3ccc(N4CCOCC4)cc3)[C@@H]2C1 showed an IC50 of 640 µM.
For CO[C@@]12CCN(C)C[C@H]1[C@H](c1ccc(C)cc1)C(C#N)=C(N)O2, the IC50 was 600 µM.
Compound CCN1CC[C@@]2(OC)OC(N)=C(C#N)[C@@H](c3ccc(N4CCCCC4)cc3)[C@@H]2C1 has an IC50 of 480 µM.
COc1cc2nc(N3CCN(C(=O)c4ccco4)CC3)nc(N)c2cc1OC [PRAZOSIN HYDROCHLORIDE] was tested, and the IC50 was 490 µM.
For CCN1CC[C@@]2(OC)OC(N)=C(C#N)[C@@H](c3ccc(OC)cc3)[C@@H]2C1, the IC50 was 680 µM.
In the case of CO[C@@]12CCN(C)C[C@H]1[C@H](c1ccc(N3CCOCC3)cc1)C(C#N)=C(N)O2, the IC50 is reported as 740 µM.
CCN1CC[C@@]2(OC)OC(N)=C(C#N)[C@@H](c3cccs3)[C@@H]2C1 showed an IC50 of 490 µM.
With CO[C@@]12CCN(C)C[C@H]1[C@H](c1ccc(Cl)cc1)C(C#N)=C(N)O2 the IC50 was 370 µM.
In the case of CO[C@@]12CCN(C)C[C@H]1[C@H](c1ccccc1)C(C#N)=C(N)O2, the IC50 is reported as 720 µM.
